Source: patent US20110077702A1, “Means and Methods for Influencing Electrical Activity of Cells” (Academisch Medisch Centrum Bij de Universiteit van Amsterdam, priority 2008, published 2011)
Where two headings read alike, the source gives them in different places.

Legend:
[1] = system: LBB preparations; experiment: Tissue bath studies of LBB preparations of injected animals; set-up: species or system dog
[2] = system: neonatal rat cardiac myocytes overexpressing HCN4; experiment: If activation curve, perforated patch-clamp, in HCN4 overexpressing NRCMs with PDE4 inhibition; format: cell-based; settings: 100 nM rolipram
Protocol: (§1) Neonatal rat cardiac myocytes and CMPCs were transduced with LV-HCN4-GFP, TBX3-GFP and LV-GFP at a MOI of 0.1, HEK 293 cells were transfected with both HCN4 and GFP or EVY deleted HCN4 and GFP. Single electrophysiological cell experiments were performed 7-10 days and 2 months after transducing NRCMs and CMPCs, respectively, or after the HEK 293 transfection. Myocytes were trypsinized during 30 seconds to prepare them for patch-clamping. By this procedure, cardiac myocytes lost their cell-to-cell connections, became less flattened (which facilitated the use of glass micropipettes), but remained attached to the coverslip.
Action potentials, If and membrane currents were recorded at 36±0.2° using the perforated patch-clamp technique (Axopatch 200B Clamp amplifier, Axon Instruments Inc.). Signals were low-pass filtered (cut-off frequency: 5-kHz) and digitized at 5-kHz. Series resistance was compensated by ≧80%, and potentials were corrected for the estimated 15-mV change in liquid-junction potential. […]
If was characterized using custom voltage-clamp protocols modified from those published previously.^14,27 For current-voltage (I-V) relationships and activation properties, If was measured as Cs^+ sensitive (5 mM) current during 6-s hyperpolarizing steps (range −30 to −110 mV) from a holding potential of −30 mV. […]

[3] = system: neonatal rat cardiac myocytes; experiment: Spontaneous activity of single control NRCMs with PDE4 inhibition; format: cell-based; settings: 100 nM rolipram
Protocol: as §1
Action potentials, If and membrane currents were recorded at 36±0.2° using the perforated patch-clamp technique (Axopatch 200B Clamp amplifier, Axon Instruments Inc.). Signals were low-pass filtered (cut-off frequency: 5-kHz) and digitized at 5-kHz. Series resistance was compensated by ≧80%, and potentials were corrected for the estimated 15-mV change in liquid-junction potential. For voltage control, data acquisition, and analysis, custom-made software was used. Superfusion solution contained (mM): 140 NaCl, 5.4 KCl, 1.8 CaCl2, 1.0 MgCl2, 5.5 glucose, 5 HEPES; pH 7.4 (NaOH). Pipettes (2-3 MΩ, borosilicate glass) were filled with solution containing (mM): 125 K-gluc, 20 KCl, 5 NaCl, 0.22 amphotericin-B, 10 HEPES; pH 7.2 (KOH).

COc1cc2c(cc1OC)CC(=O)N(CCCN(C)C[C@H]1Cc3cc(OC)c(OC)cc31)CC2 [Ivabradine]
spontaneous rate of HCN2/SkM1 preparation ([1]; isoproterenol enhanced rhythm, HCN2/SkM1 injected animals): reductions in rate

CC(C)NCC(O)c1ccc(O)c(O)c1 (stereo not shown) [isoproterenol, Isoproterenol]
spontaneous rate of HCN2/SkM1 preparation [1]: robust spontaneous activity sensitive to isoproterenol

COc1ccc(C2CNC(=O)C2)cc1OC1CCCC1 (stereo not shown) [rolipram]
shift in the If activation curve [2]: rightward shift in the If activation curve | spontaneous activity [3]: remarkable increase in spontaneous activity
